Biological target: T1, SGAP (Streptomyces griseus, UniProt P80561)
T1 construct: gene SGR_5809; commercial preparation (Sigma)
Assay: 4-nitroanilide release at […] nm, commercial enzyme
Assay type: biochemical
Details: 1 mM substrate, MMP, 37 °C

T1 sequence (P80561 46-329): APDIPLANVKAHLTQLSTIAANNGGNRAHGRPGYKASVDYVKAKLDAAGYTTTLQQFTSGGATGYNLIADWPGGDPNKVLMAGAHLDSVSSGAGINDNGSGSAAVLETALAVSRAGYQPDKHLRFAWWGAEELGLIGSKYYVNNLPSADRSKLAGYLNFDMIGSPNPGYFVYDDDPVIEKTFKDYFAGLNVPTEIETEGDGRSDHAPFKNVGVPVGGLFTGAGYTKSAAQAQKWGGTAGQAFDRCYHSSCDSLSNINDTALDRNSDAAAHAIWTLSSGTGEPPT

Compound: CSCC[C@H](N)C(=O)Nc1ccc([N+](=O)[O-])cc1 [methionine-p-nitroanilide]
- 4-nitroanilide release at 405 nm, commercial enzyme: SGAP clearly released maximal levels of 4-nitroanilide from leucine-p-nitroanilide and methionine-p-nitroanilide

Compound: CC(C)C[C@H](N)C(=O)Nc1ccc([N+](=O)[O-])cc1 [leucine-p-nitroanilide]
- 4-nitroanilide release at 405 nm, commercial enzyme: SGAP clearly released maximal levels of 4-nitroanilide from leucine-p-nitroanilide and methionine-p-nitroanilide
